Test results from patent US10738056B2 (Aduro BioTech, Inc., priority 2017, dated 2020).
Read-outs that look alike come from different tables or passages of the source.

Legend:
[1] = molecular target: Human cGAS amino acids 155-522 (Homo sapiens (Human), UniProt Q8N884); experiment: cGAS biochemical activity assay (ATP remaining, Kinase-Glo Max luminescence); settings: human cGAS 155-522, ATP remaining (Kinase-Glo Max); read-out: cGAS IC50
[2] = test system: cGAS/STING pathway in THP1 cells; experiment: THP1 cell-based cGAS/STING pathway activity assay (IRF-3-linked luciferase reporter)
Procedure, shortened: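 THP1 cells carrying an IRF-3-driven luciferase reporter were read across a range of compound concentrations, and IC50 values were derived from these concentration responses; the assay upper limit was 100 μM.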

Chain of Human cGAS amino acids 155-522 (Q8N884 157-522): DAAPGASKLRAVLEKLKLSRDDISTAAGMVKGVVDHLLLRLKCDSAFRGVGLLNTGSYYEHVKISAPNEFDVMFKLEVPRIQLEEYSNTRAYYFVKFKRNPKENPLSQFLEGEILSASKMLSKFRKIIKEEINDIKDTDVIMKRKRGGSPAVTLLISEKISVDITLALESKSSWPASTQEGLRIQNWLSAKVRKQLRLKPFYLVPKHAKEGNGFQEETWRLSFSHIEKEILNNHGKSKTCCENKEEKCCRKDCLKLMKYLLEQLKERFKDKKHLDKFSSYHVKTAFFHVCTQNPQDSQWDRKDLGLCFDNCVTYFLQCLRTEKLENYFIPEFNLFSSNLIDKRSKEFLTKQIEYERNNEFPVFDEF

IC50 [1] [µM] | IC50 ([2]; Homo sapiens, THP-1) [µM] | IC50 ([2]; read-out: THP-1 IC50) [µM] | SMILES
< 20 | < 20 | – | Cc1[nH]c2c(-c3ccccc3)c(C#N)nn2c(=O)c1-c1ccccc1 [Compound C1273, 5-methyl-7-oxo-3,6-diphenyl-4,7-dihydropyrazolo[1,5-a]pyrimidine-2-carbonitrile]
< 20 | < 20 | – | Cc1[nH]c2c(-c3ccccc3)c(C(F)(F)F)nn2c(=O)c1C(=O)Nc1cccc(OC(C)C)c1 [Compound A1066, N-(3-isopropoxyphenyl)-5-methyl-7-oxo-3-phenyl-2-(trifluoromethyl)-4,7-dihydropyrazolo[1,5-a]pyrimidine-6-carboxamide]
< 20 | > 100 | – | COc1cccc2oc(-c3c(COCC(=O)O)[nH]c4c(-c5ccccc5)c(C(F)(F)F)nn4c3=O)nc12 [Compound C1146, 2-((6-(4-methoxybenzo[d]oxazol-2-yl)-7-oxo-3-phenyl-2-(trifluoromethyl)-4,7-dihydropyrazolo[1,5-a]pyrimidin-5-yl)methoxy)acetic acid]
< 20 | 20 to 100 | – | COc1cc(C(=O)O)cc2oc(-c3c(C)[nH]c4c(-c5ccccc5)c(C(F)(F)F)nn4c3=O)nc12 [Compound C1155, 4-methoxy-2-(5-methyl-7-oxo-3-phenyl-2-(trifluoromethyl)-4,7-dihydropyrazolo[1,5-a]pyrimidin-6-yl)benzo[d]oxazole-6-carboxylic acid]
< 20 | 20 to 100 | – | COc1cc(N)c(Cl)c2oc(-c3c(C)[nH]c4c(-c5ccccc5)c(C#N)nn4c3=O)nc12 [Compound C1202, 6-(6-amino-7-chloro-4-methoxybenzo[d]oxazol-2-yl)-5-methyl-7-oxo-3-phenyl-4,7-dihydropyrazolo[1,5-a]pyrimidine-2-carbonitrile]
< 20 | > 100 | – | COc1cccc2oc(-c3c(-c4cn[nH]c4)[nH]c4c(-c5ccccc5)c(C(F)(F)F)nn4c3=O)nc12 [Compound C1254, 6-(4-methoxybenzo[d]oxazol-2-yl)-3-phenyl-5-(1H-pyrazol-4-yl)-2-(triluoromethyl)pyrazolo[1,5-a]pyrimidin-7(4H)-one]
< 20 | 20 to 100 | – | COc1cccnc1NC(=O)c1c(C)[nH]c2c(-c3ccccc3)c(C(F)(F)F)nn2c1=O [Compound A1100, N-(3-methoxypyridin-2-yl)-5-methyl-7-oxo-3-phenyl-2-(trifluoromethyl)-4,7-dihydropyrazolo[1,5-a]pyrimidine-6-carboxamide]
< 20 | > 100 | – | COc1cccc2oc(-c3c(C(N)=O)[nH]c4c(-c5ccccc5)c(C(F)(F)F)nn4c3=O)nc12 [Compound C1132, 6-(4-methoxybenzo[d]oxazol-2-yl)-7-oxo-3-phenyl-2-(trifluoromethyl)-4,7-dihydropyrazolo[1,5-a]pyrimidine-5-carboxamide]
< 20 | > 100 | – | Cc1[nH]c2c(-c3ccccc3)c(C(F)(F)F)nn2c(=O)c1-c1nc2c(o1)CCCC2=O [Compound C1033, 2-(5-methyl-7-oxo-3-phenyl-2-(trifluoromethyl)-4,7-dihydropyrazolo[1,5-a]pyrimidin-6-yl)-6,7-dihydrobenzo[d]oxazol-4(5H)-one]
< 20 | 20 to 100 | – | CC(=O)N1CCCCC1c1nnc(-c2c(C)[nH]c3c(-c4ccccc4)c(C(F)(F)F)nn3c2=O)o1 (stereo not shown) [Compound D1057, 6-(5-(1-acetylpiperidin-2-yl)-1,3,4-oxadiazol-2-yl)-5-methyl-3-phenyl-2-(trifluoromethyl)pyrazolo[1,5-a]pyrimidin-7(4H)-one]
< 20 | 20 to 100 | – | COc1cccc2nc(-c3c(C)[nH]c4c(-c5ccccc5)c(C(F)(F)F)nn4c3=O)[nH]c(=O)c12 [Compound C1024, 5-methoxy-2-(5-methyl-7-oxo-3-phenyl-2-(trifluoromethyl)-4,7-dihydropyrazolo[1,5-a]pyrimidin-6-yl)quinazolin-4(3H)-one]
> 250 | 20 to 100 | – | Cc1[nH]c2c(-c3ccccc3)c(C(F)(F)F)nn2c(=O)c1-c1nnc(-c2ccco2)o1 [Compound D1007, 6-(5-(furan-2-yl)-1,3,4-oxadiazol-2-yl)-5-methyl-3-phenyl-2-(trifluoromethyl)pyrazolo[1,5-a]pyrimidin-7(4H)-one]
< 20 | > 100 | – | Cc1[nH]c2c(-c3ccccc3)c(C(F)(F)F)nn2c(=O)c1-c1nnc(C2CCCCO2)o1 (stereo not shown) [Compound D1024, 5-methyl-3-phenyl-6-(5-(tetrahydro-2H-pyran-2-yl)-1,3,4-oxadiazol-2-yl)-2-(trifluoromethyl)pyrazolo[1,5-a]pyrimidin-7(4H)-one]
< 20 | > 100 | – | Cc1[nH]c2c(-c3ccccc3)c(C#N)nn2c(=O)c1-c1nc2cnccc2o1 [Compound C1275, 5-methyl-6-(oxazolo[4,5-c]pyridin-2-yl)-7-oxo-3-phenyl-4,7-dihydropyrazolo[1,5-a]pyrimidine-2-carbonitrile]
< 20 | 20 to 100 | – | Cc1[nH]c2c(-c3ccccc3)c(C(F)(F)F)nn2c(=O)c1-c1ncc(C2CCCOC2)o1 (stereo not shown) [Compound C1027, 5-methyl-3-phenyl-6-(5-(tetrahydro-2H-pyran-3-yl)oxazol-2-yl)-2-(trifluoromethyl)pyrazolo[1,5-a]pyrimidin-7(4H)-one]
20 to 250 | 20 to 100 | – | Cc1[nH]c2c(-c3ccccc3)c(C(F)(F)F)nn2c(=O)c1C(=O)Nc1ccccc1Cl [Compound A1033, N-(2-chlorophenyl)-5-methyl-7-oxo-3-phenyl-2-(trifluoromethyl)-4,7-dihydropyrazolo[1,5-a]pyrimidine-6-carboxamide]
< 20 | > 100 | – | COc1cccc2oc(-c3c(C4=CCC(C(=O)O)CC4)[nH]c4c(-c5ccccc5)c(C(F)(F)F)nn4c3=O)nc12 (stereo not shown) [Compound C1234, 4-(6-(4-methoxybenzo[d]oxazol-2-yl)-7-oxo-3-phenyl-2-(trifluoromethyl)-4,7-dihydropyrazolo[1,5-a]pyrimidin-5-yl)cyclohex-3-ene-1-carboxylic acid]
< 20 | > 100 | – | COc1ccnc2oc(-c3c(C)[nH]c4c(-c5ccccc5)c(C(F)(F)F)nn4c3=O)nc12 [Compound C1058, 6-(7-methoxyoxazolo[5,4-b]pyridin-2-yl)-5-methyl-3-phenyl-2-(trifluoromethyl)pyrazolo[1,5-a]pyrimidin-7(4H)-one]
< 20 | < 20 | – | Cc1[nH]c2c(-c3ccccc3)c(C(F)(F)F)nn2c(=O)c1-c1nc2c(N(C)C)cccc2o1 [Compound C1078, 6-(4-(dimethylamino)benzo[d]oxazol-2-yl)-5-methyl-3-phenyl-2-(trifluoromethyl)pyrazolo[1,5-a]pyrimidin-7(4H)-one]
< 20 | < 20 | – | C=Cc1nn2c(=O)c(-c3nc4c(OC)cccc4o3)c(C)[nH]c2c1-c1ccccc1 [Compound C1241, 6-(4-methoxybenzo[d]oxazol-2-yl)-5-methyl-3-phenyl-2-vinylpyrazolo[1,5-a]pyrimidin-7(4H)-one]
< 20 | < 20 | – | COc1cccc2oc(-c3c(C)[nH]c4c(-c5ccccc5)c(C(F)F)nn4c3=O)nc12 [Compound C1050, 2-(difluoromethyl)-6-(4-methoxybenzo[d]oxazol-2-yl)-5-methyl-3-phenylpyrazolo[1,5-a]pyrimidin-7(4H)-one]
< 20 | > 100 | – | Cc1[nH]c2c(-c3ccccc3)c(C(F)(F)F)nn2c(=O)c1C(=O)Nc1ncco1 [Compound A1074, 5-methyl-N-(oxazol-2-yl)-7-oxo-3-phenyl-2-(trifluoromethyl)-4,7-dihydropyrazolo[1,5-a]pyrimidine-6-carboxamide]
< 20 | > 100 | – | Cc1[nH]c2c(-c3ccccc3)c(C(F)(F)F)nn2c(=O)c1-c1nnc(-c2cccc(O)n2)o1 [Compound D1086, 6-(5-(6-hydroxypyridin-2-yl)-1,3,4-oxadiazol-2-yl)-5-methyl-3-phenyl-2-(trifluoromethyl)pyrazolo[1,5-a]pyrimidin-7(4H)-one]
< 20 | – | < 20 | CO[C@H]1CCCCC1c1nnc(-c2c(C)[nH]c3c(-c4ccccc4)c(C(F)(F)F)nn3c2=O)o1 (stereo partly shown) [D1046 Iso-1]
< 20 | < 20 | – | CCOc1cccc2oc(-c3c(C)[nH]c4c(-c5ccccc5)c(C(F)(F)F)nn4c3=O)nc12 [Compound C1038, 6-(4-ethoxybenzo[d]oxazol-2-yl)-5-methyl-3-phenyl-2-(trifluoromethyl)pyrazolo[1,5-a]pyrimidin-7(4H)-one]
< 20 | 20 to 100 | – | COc1ccnc(NC(=O)c2c(C)[nH]c3c(-c4ccccc4)c(C(F)(F)F)nn3c2=O)c1 [Compound A1063, N-(4-methoxypyridin-2-yl)-5-methyl-7-oxo-3-phenyl-2-(trifluoromethyl)-4,7-dihydropyrazolo[1,5-a]pyrimidine-6-carboxamide]
20 to 250 | > 100 | – | Cc1[nH]c2c(-c3ccccc3)c(C(F)(F)F)nn2c(=O)c1C(=O)Nc1cn[nH]c1 [Compound A1068, 5-methyl-7-oxo-3-phenyl-N-(1H-pyrazol-4-yl)-2-(trifluoromethyl)-4,7-dihydropyrazolo[1,5-a]pyrimidine-6-carboxamide]
< 20 | > 100 | – | COc1nc(N)nc2oc(-c3c(C)[nH]c4c(-c5ccccc5)c(C(F)(F)F)nn4c3=O)nc12 [Compound C1174, 6-(5-amino-7-methoxyoxazolo[5,4-d]pyrimidin-2-yl)-5-methyl-3-phenyl-2-(trifluoromethyl)pyrazolo[1,5-a]pyrimidin-7(4H)-one]
20 to 250 | > 100 | – | CC(=O)N1CCCC(c2nnc(-c3c(C)[nH]c4c(-c5ccccc5)c(C(F)(F)F)nn4c3=O)o2)C1 (stereo not shown) [Compound D1041, 6-(5-(1-acetylpiperidin-3-yl)-1,3,4-oxadiazol-2-yl)-5-methyl-3-phenyl-2-(trifluoromethyl)pyrazolo[1,5-a]pyrimidin-7(4H)-one]
